Measured values published in patent publication US20230219925A1, “BENZO FIVE-MEMBERED NITROGEN HETEROCYCLIC COMPOUND AND APPLICATION THEREOF” (GUANGZHOU INSTITUTES OF BIOMEDICINE AND HEALTH CHINESE …, priority 2020, published 2023).
Like-named read-outs stand apart in the source and are kept apart here. One block for each compound: values may come before it.

Assays:
hRORγ = target: T1, hRORγ (Homo sapiens, UniProt P51449); experiment: protein thermal stability shift assay (TSA)
T1 sequence (P51449 1-518): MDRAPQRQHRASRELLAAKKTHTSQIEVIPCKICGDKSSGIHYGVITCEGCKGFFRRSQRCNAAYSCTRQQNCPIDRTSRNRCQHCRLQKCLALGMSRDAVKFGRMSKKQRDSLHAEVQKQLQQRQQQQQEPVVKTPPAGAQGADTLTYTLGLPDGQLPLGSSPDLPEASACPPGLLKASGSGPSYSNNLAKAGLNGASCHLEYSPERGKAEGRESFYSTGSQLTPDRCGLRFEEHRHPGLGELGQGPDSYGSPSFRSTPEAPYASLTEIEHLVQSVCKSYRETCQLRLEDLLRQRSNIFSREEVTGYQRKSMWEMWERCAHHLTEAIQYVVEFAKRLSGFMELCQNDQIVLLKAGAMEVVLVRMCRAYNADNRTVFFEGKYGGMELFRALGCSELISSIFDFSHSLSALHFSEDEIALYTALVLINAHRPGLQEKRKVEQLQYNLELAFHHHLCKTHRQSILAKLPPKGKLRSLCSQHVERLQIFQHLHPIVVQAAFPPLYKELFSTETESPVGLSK

RORγ = target: T2, RORγ (Homo sapiens, UniProt P51449); experiment: luciferase dual reporter gene assay, Gal4-RORγLBD in 293T cells
T2 sequence (P51449 269-508 limits assumed): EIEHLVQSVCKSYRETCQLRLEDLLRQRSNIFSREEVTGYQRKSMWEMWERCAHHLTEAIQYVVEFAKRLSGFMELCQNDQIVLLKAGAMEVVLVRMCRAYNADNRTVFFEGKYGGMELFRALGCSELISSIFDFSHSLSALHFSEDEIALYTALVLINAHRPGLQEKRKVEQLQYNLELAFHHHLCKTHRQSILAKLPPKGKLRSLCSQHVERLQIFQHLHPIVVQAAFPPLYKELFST

[1] = read-out: ΔTm (TSA detection technique), hRORγ 10 μM, compound 200 μM
[2] = IC50 (luciferase detection technique), RORγ transcriptional activity, Table 1
[3] = read-out: ΔTm (TSA detection technique)

SMILES: CCS(=O)(=O)c1ccc(C(NC(C)=O)C(=O)Nc2ccc(-c3nc4ccc(C)cc4n3[C@H](C)c3ccc(C)cc3)nc2)cc1 (stereo partly drawn) [Example 82, 2-acetylamino-2-(4-(ethylsulfonyl)phenyl)-N-(6-(6-methyl-1-((R)-1-(p-tolyl)ethyl)-1H-benzo[d]imidazol-2-yl)pyridin-3-yl)acetamide]
ΔTm at 200 µM (hRORγ; [3]): < 5 °C
IC50 (RORγ): < 0.1 µM

SMILES: CCS(=O)(=O)c1ccc(C(NC(C)=O)C(=O)Nc2ccc(-c3nc4cc(C(=O)NC(C)C)ccc4n3[C@@H](C)c3ccc(C)cc3)cc2)cc1 (stereo partly drawn) [Example 79, 2-(4-(2-acetylamino-2-(4-(ethylsulfonyl)phenyl)acetylamino)phenyl)-N-isopropyl-1-((S)-1-(p-tolyl)ethyl)-1H-benzo[d]imidazol-5-formamide]
ΔTm at 200 µM (hRORγ; [1]): 5 to 10 °C
IC50 (RORγ; [2]): 1 to 10 µM

SMILES: CCS(=O)(=O)c1ccc(C(NC(C)=O)C(=O)Nc2ccc(-c3nc4cc(C(=O)NC(C)C)ccc4n3[C@H](C)c3ccc(C)cc3)cc2)cc1 (stereo partly drawn) [Example 78, 2-(4-(2-acetylamino-2-(4-(ethylsulfonyl)phenyl)acetylamino)phenyl)-N-isopropyl-1-((R)-1-(p-tolyl)ethyl)-1H-benzo[d]imidazol-5-formamide]
ΔTm at 200 µM (hRORγ; [1]): 5 to 10 °C
IC50 (RORγ; [2]): 1 to 10 µM

SMILES: Cc1ccc2nc(-c3ccc(NS(=O)(=O)Cc4ccc(C#N)cc4)cc3)sc2c1 [Example 16, 1-(4-cyanophenyl)-N-(4-(6-methylbenzo[d]thiazol-2-yl)phenyl)methanesulfonamide]
ΔTm at 200 µM (hRORγ; [1]): > 10 °C
IC50 (RORγ; [2]): 1 to 10 µM

SMILES: CCS(=O)(=O)c1ccc(CC(=O)Nc2ccc(-c3nc4ccc(OC)cc4s3)cc2)cc1 [Example 31, 2-(4-(ethylsulfonyl)phenyl)-N-(4-(6-methoxybenzo[d]thiazol-2-yl)phenyl) acetamide]
ΔTm at 200 µM (hRORγ; [1]): 5 to 10 °C
IC50 (RORγ; [2]): 10 to 100 µM

SMILES: CCN1C(=O)c2cccc3c(S(=O)(=O)Nc4ccc(-c5nc6ccc(C)cc6s5)cc4)ccc1c23 [Example 11, 1-ethyl-N-(4-(6-methylbenzo[d]thiazol-2-yl)phenyl)-2-oxo-1,2-dihydrobenzo[cd]indol-6-sulfonamide]
ΔTm at 200 µM (hRORγ; [3]): > 10 °C
IC50 (RORγ): 10 to 100 µM

SMILES: CCS(=O)(=O)c1ccc(C(NC(C)=O)C(=O)Nc2ccc(-c3nc4ccc(C)cc4n3[C@@H](C)c3ccc(C)cc3)cc2)cc1 (single isomer, unassigned) [Example 75]
IC50 (RORγ; [2]): 0.1 to 1 µM

SMILES: CCS(=O)(=O)c1ccc(CC(=O)Nc2ccc(-c3nc4cc(Cl)c(Cl)cc4n3Cc3ccccc3)cc2)cc1 [Example 86, N-(4-(1-benzyl-5,6-dichloro-1H-benzo[d]imidazol-2-yl)phenyl)-2-(4-(ethylsulfonyl)phenyl)acetamide]
ΔTm at 200 µM (hRORγ; [1]): < 5 °C
IC50 (RORγ; [2]): 0.1 to 1 µM

SMILES: Cc1ccc2nc(-c3ccc(NS(=O)(=O)c4ccc([N+](=O)[O-])cc4)cc3)sc2c1 [Example 5, N-(4-(6-methylbenzo[d]thiazol-2-yl)phenyl)-4-nitrobenzenesulfonamide]
ΔTm at 200 µM (hRORγ; [1]): < 5 °C
IC50 (RORγ; [2]): 1 to 10 µM

SMILES: Cc1ccc2nc(-c3ccc(NS(=O)(=O)Cc4cccc(N)c4)cc3)sc2c1 [Example 24, 1-(3-aminophenyl)-N-(4-(6-methylbenzo[d]thiazol-2-yl)phenyl)methane sulfonamide]
ΔTm at 200 µM (hRORγ; [1]): > 10 °C
IC50 (RORγ; [2]): 10 to 100 µM

SMILES: CCS(=O)(=O)c1ccc(C(NC(C)=O)C(=O)Nc2ccc(-c3nc4cc(C(=O)NC(C)C)ccc4n3[C@H](C)c3ccc(C)cc3)nc2)cc1 (stereo partly drawn) [Example 83, 2-(5-(2-acetylamino-2-(4-(ethylsulfonyl)phenyl)acetylamino)pyridin-2-yl)-N-isopropyl-1-((R)-1-(p-tolyl)ethyl)-1H-benzo[d]imidazol-5-formamide]
ΔTm at 200 µM (hRORγ; [1]): < 5 °C
IC50 (RORγ; [2]): 1 to 10 µM

SMILES: Cc1ccc(CS(=O)(=O)Nc2ccc(-c3nc4ccc(C)cc4s3)cc2)cc1 [Example 12, N-(4-(6-methylbenzo[d]thiazol-2-yl)phenyl)-1-(p-tolyl)methanesulfonamide]
ΔTm at 200 µM (hRORγ; [1]): > 10 °C
IC50 (RORγ; [2]): 1 to 10 µM

SMILES: CCS(=O)(=O)c1ccc(CC(=O)Nc2ccc(-c3nc4ccc(C)cc4[nH]3)cc2)cc1 [Example 87, 2-(4-(ethylsulfonyl)phenyl)-N-(4-(6-methyl-1H-benzo[d]imidazol-2-yl)phenyl)acetamide]
ΔTm at 200 µM (hRORγ; [1]): > 10 °C
IC50 (RORγ; [2]): 1 to 10 µM

SMILES: CCS(=O)(=O)c1ccc(CC(=O)Nc2ccc(-c3nc4cc(C)c(C)cc4n3Cc3ccccc3)cc2)cc1 [Example 85, N-(4-(1-benzyl-5,6-dimethyl-1H-benzo[d]imidazol-2-yl)phenyl)-2-(4-(ethylsulfonyl)phenyl)acetamide]
ΔTm at 200 µM (hRORγ; [1]): < 5 °C
IC50 (RORγ; [2]): 0.1 to 1 µM

SMILES: Cc1cc(C)c(S(=O)(=O)Nc2ccc(-c3nc4ccc(C)cc4s3)cc2)c(C)c1 [Example 10, 2,4,6-trimethyl-N-(4-(6-methylbenzo[d]thiazol-2-yl)phenyl)benzenesulfonamide]
ΔTm at 200 µM (hRORγ; [1]): > 10 °C
IC50 (RORγ; [2]): 1 to 10 µM

SMILES: CCS(=O)(=O)c1ccc(C(NC(C)=O)C(=O)Nc2ccc(-c3nc4cc(C(=O)NC(C)C)ccc4n3[C@@H](C)c3ccc(C)cc3)nc2)cc1 (stereo partly drawn) [Example 84, 2-(5-(2-acetylamino-2-(4-(ethylsulfonyl)phenyl)acetylamino)pyridin-2-yl)-N-isopropyl-1-((S)-1-(p-tolyl)ethyl)-1H-benzo[d]imidazol-5-formamide]
ΔTm at 200 µM (hRORγ; [1]): 5 to 10 °C
IC50 (RORγ; [2]): 1 to 10 µM

SMILES: CCS(=O)(=O)c1ccc(CC(=O)Nc2ccc(-c3nc4ccc(F)cc4s3)cc2)cc1 [Example 30, 2-(4-(ethylsulfonyl)phenyl)-N-(4-(6-fluorobenzo[d]thiazol-2-yl)phenyl)acetamide]
ΔTm at 200 µM (hRORγ; [1]): 5 to 10 °C
IC50 (RORγ; [2]): 1 to 10 µM

SMILES: Cc1ccc(CC(=O)Nc2ccc(-c3nc4ccc(C)cc4s3)cc2)cc1 [Example 27, N-(4-(6-methylbenzo[d]thiazol-2-yl)phenyl)-2-(p-tolyl)acetamide]
ΔTm at 200 µM (hRORγ; [1]): > 10 °C
IC50 (RORγ; [2]): 10 to 100 µM

SMILES: CCS(=O)(=O)c1ccc(C(NC(C)=O)C(=O)Nc2ccc(-c3nc4ccc(C)cc4n3[C@@H](C)c3ccc(C)cc3)nc2)cc1 (stereo partly drawn) [Example 80, 2-acetylamino-2-(4-(ethylsulfonyl)phenyl)-N-(6-(6-methyl-1-((S)-1-(p-tolyl)ethyl)-1H-benzo[d]imidazol-2-yl)pyridin-3-yl)acetamide]
ΔTm at 200 µM (hRORγ; [3]): < 5 °C
IC50 (RORγ): < 0.1 µM

Next, values leading:

ΔTm at 200 µM (hRORγ; [1]): 5 to 10 °C
IC50 (RORγ; [2]): < 0.1 µM
SMILES: CCS(=O)(=O)c1ccc(CC(=O)Nc2ccc(-c3nc4ccc(C(=O)NC5CCCC5)cc4n3[C@H](C)c3ccc(C)cc3)cc2)cc1 [Example 70, (R)—N-cyclopentyl-2-(4-(2-(4-(ethylsulfonyl)phenyl)acetylamino)phenyl)-1-(1-(p-tolyl)ethyl)-1H-benzo[d]imidazol-6-formamide]

ΔTm at 200 µM (hRORγ; [1]): < 5 °C
IC50 (RORγ; [2]): < 0.1 µM
SMILES: CCS(=O)(=O)c1ccc(C(NC(C)=O)C(=O)Nc2ccc(-c3nc4ccc(C)cc4n3[C@H](C)c3ccc(C)cc3)cc2)cc1 (stereo partly drawn) [Example 77, 2-acetylamino-2-(4-(ethylsulfonyl)phenyl)-N-(4-(6-methyl-1-((R)-1-(p-tolyl)ethyl)-1H-benzo[d]imidazopyridin-2-yl)phenyl)acetamide]

ΔTm at 200 µM (hRORγ; [1]): < 5 °C
IC50 (RORγ; [2]): < 0.1 µM
SMILES: CCS(=O)(=O)c1ccc(C(NC(C)=O)C(=O)Nc2ccc(-c3nc4ccc(C)cc4n3[C@@H](C)c3ccc(C)cc3)cc2)cc1 (stereo partly drawn) [Example 73, 2-acetylamino-2-(4-(ethylsulfonyl)phenyl)-N-(4-(6-methyl-1-((S)-1-(p-tolyl)ethyl)-1H-benzo[d]imidazol-2-yl)phenyl)acetamide]

ΔTm at 200 µM (hRORγ; [1]): 5 to 10 °C
IC50 (RORγ; [2]): 0.1 to 1 µM
SMILES: CCS(=O)(=O)c1ccc(CC(=O)Nc2ccc(-c3nc4ccc(C)cc4s3)c(Cl)c2)cc1 [Example 29, N-(3-chloro-4-(6-methylbenzo[d]thiazol-2-yl)phenyl)-2-(4-(ethylsulfonyl)phenyl) acetamide]

ΔTm at 200 µM (hRORγ; [1]): > 10 °C
IC50 (RORγ; [2]): < 0.1 µM
SMILES: CCCCCCC(=O)Nc1ccc(-c2nc3ccc(C)cc3s2)cc1 [Example 26, N-(4-(6-methylbenzo[d]thiazol-2-yl)phenyl)heptanamide]

ΔTm at 200 µM (hRORγ; [1]): 5 to 10 °C
IC50 (RORγ; [2]): < 0.1 µM
SMILES: CCS(=O)(=O)c1ccc(CC(=O)Nc2ccc(-c3nc4cc(C(=O)NC5CCCC5)ccc4n3[C@H](C)c3ccc(C)cc3)cc2)cc1 [Example 72, (R)—N-cyclopentyl-2-(4-(2-(4-(ethylsulfonyl)phenyl)acetylamino)phenyl)-1-(1-(p-tolyl)ethyl)-1H-benzo[d]imidazol-5-formamide]

ΔTm at 200 µM (hRORγ; [1]): 5 to 10 °C
IC50 (RORγ; [2]): < 0.1 µM
SMILES: CCS(=O)(=O)c1ccc(CC(=O)Nc2ccc(-c3nc4ccc(C)cc4n3Cc3ccc(C#N)cc3)cc2)cc1 [Example 49, N-(4-(1-(4-cyanobenzyl)-6-methyl-1H-benzo[d]imidazol-2-yl)phenyl)-2-(4-(ethylsulfonyl)phenyl)acetamide]

ΔTm at 200 µM (hRORγ; [1]): 5 to 10 °C
IC50 (RORγ; [2]): < 0.1 µM
SMILES: CCS(=O)(=O)c1ccc(CC(=O)Nc2ccc(-c3nc4cc(Cl)ccc4n3Cc3ccccc3)cc2)cc1 [Example 53]

ΔTm at 200 µM (hRORγ; [1]): < 5 °C
IC50 (RORγ; [2]): < 0.1 µM
SMILES: CCS(=O)(=O)c1ccc(CC(=O)Nc2ccc(-c3nc4ccc(Cl)cc4n3Cc3ccccc3)cc2)cc1 [Example 52]
